From patent US6787561B1, “Benzimidazole compounds” (Fuji Photo Film Co., Ltd., priority 1999, dated 2004)
Where two headings read alike, the source gives them in different places.

Key:
[1] = mouse, in vivo, po, 30 mg/kg
Protocol: (§1) The compounds of the present invention were orally administered to mice to evaluate AUC (area under the plasma concentration).
(§2) 8-week old BALB/cA male mice (Charles River Japan) were conditioned for one week after arrival and then used. Each test substance was dispersed in a medium containing 10% macrogol (Yoshida Seiyaku) and 90% physiological saline (Hikari Seiyaku) to prepare 5 mg/ml test substance suspension. Each prepared suspension was orally administered to 6 mice (30 mg/kg) at the same time, and cervical spine of one mouse was dislocated at each time, i.e., immediately after the administration, and 30 minutes, 1 hour, 2 hours, 4 hours and 6 hours after the administration. The whole blood was collected from abdominal aorta and blood level of the test substance was determined by liquid chromatography.

[2] = tested on: mouse peritoneal macrophages; assay: Suppression of foaming of macrophages: cholesterol ester yield in mouse peritoneal macrophages loaded with liposomes; assay type: cell-based; settings: for activity at 5 µM: Mus musculus, Peritoneal macrophage, 16 h, read-out: CE yield (%)
Protocol: Activity of the compounds of the present invention for suppressing the foaming of macrophages, which triggers arterial sclerosis, was examined.
(1) In vitro experiment using mouse peritoneal macrophages,
15-Week old female ICR mice (Nippon SLC) were subjected to bleeding by cutting off their cervicalis, and Hanks buffer (Nippon Seiyaku) was injected into their peritoneal cavities. After abdominal regions of the mice were massaged, the buffer was recovered immediately, and then the resulting buffer was centrifuged at 1,000 r.p.m. for five minutes to collect peritoneal macrophages. Then, the collected macrophages were suspended in GTI medium (Wako Pure Chemical Industries), and inoculated onto a 24-well microtiter plate. After the macrophages were cultivated at 37° C. under 5% CO2 for two hours, the culture medium was changed with Dulbecco Modified Eagle Medium (MEM, Nippon Seiyaku). The macrophages were further cultivated at 37° C. under 5% CO2 for 16 hours, and then a test compound and liposomes were added to the culture.
1) Test compound: dissolved in DMSO (Wako Pure Chemical Industries),
2) Liposomes: PC/PS/DCP/CHOL=50/50/10/75 (nmol)
After cultivation was further continued at 37° C. under 5% CO2 for 16 hours, lipid fraction was extracted with chloroform and methanol. The extracted lipid fraction was dissolved in isopropyl alcohol, and the produced cholesterol ester (CE) was quantified by an enzymatic luminescence method. Yield of the cholesterol ester was calculated as a relative ratio based on yield of the control as 100% where no test compound was added.

[3] = AUC (area under the plasma concentration) after oral administration to mice
Protocol: as §1, §2

[4] = test compound 5 μM, cholesterol ester yield relative to control without test compound = 100%, smaller value = more potent suppression
[5] = male, BALB/cA, mouse, plasma, po, 30 mg/kg

AUC [3, 5] [ng·h/mL] | Compound | activity at 5 µM [2, 4] [%] | other results
– | COCn1c(SCCCCCNc2cnccn2)nc2ccccc21 [Compound 28, 1-methoxymethyl-2-(5-(N-(2-pyrazyl)amino)pentylthio)-benzimidazole] | – | AUC [1]: 410 ng·h/mL; CE yield (%) [2, 4]: 24%
2420 | c1ccc2[nH]c(OCCCCCSc3nc4ccccc4[nH]3)nc2c1 [Compound 21, 2-(5-(2-benzimidazolylthio)pentyloxy)benzimidazole] | 18 | –
110 | Cn1c(OCCCCCSc2nc3ccccc3[nH]2)nc2ccccc21 [Compound 9] | 6.2 | –
1220 | COc1ccc2nc(SCCCCCOc3ccccn3)[nH]c2c1 [Compound 17, 5-methoxy-2-(5-(2-pyridyloxy)pentylthio)benzimidazole] | 14 | –
680 | c1cnc(OCCCCCSc2nc3ccccc3[nH]2)nc1 [Compound 6] | 12 | –
– | c1ccc(OCCCCCCSc2nc3ccccc3[nH]2)nc1 [Compound 12, 2-(6-(2-pyridyloxy)hexylthio)benzimidazole] | 13 | –
– | c1ccc(OCCCCCCCCSc2nc3ccccc3[nH]2)nc1 [Compound 10, 2-(8-(2-pyridyloxy)octylthio)benzimidazole] | 12 | –
1410 | Cc1ccc2nc(SCCCCCOc3ccccn3)[nH]c2c1 [Compound 16, 5-methyl-2-(5-(2-pyridyloxy)pentylthio)benzimidazole] | 14 | –
– | c1ccc2[nH]c(SCCCCCCNc3nc4ccccc4o3)nc2c1 [Compound 32, 2-(6-(2-benzoxazolylamino)hexylthio)benzimidazole] | 12 | –
– | c1ccc2[nH]c(SCCOCCNc3nc4ccccc4o3)nc2c1 [Compound 35, 2-(2-(2-(2-benzoxazolylamino)ethoxy)ethylthio)-benzimidazole] | 9.7 | –
150 | c1ccc(OCCCCCCCSc2nc3ccccc3[nH]2)nc1 [Compound 13, 2-(7-(2-pyridyloxy)heptylthio)benzimidazole] | 20 | –
5520 | c1ccc2[nH]c(SCCCCCOc3ccncc3)nc2c1 [Compound 19, 2-(5-(4-pyridyloxy)pentylthio)benzimidazole] | 4.2 | –
1210 | c1ccc2[nH]c(SCCCCCCOc3ccncc3)nc2c1 [Compound 25, 2-(6-(4-pyridyloxy)hexylthio)benzimidazole] | 2.8 | –
230 | c1ccc2[nH]c(SCCCCCNc3nc4ccccc4s3)nc2c1 [Compound 30, 2-(5-(2-benzothiazolylamino)pentylthio)benzimidazole] | 4.2 | –
– | CCC(=O)n1c(SCCCCCOc2ccccn2)nc2ccccc21 [Compound 24, 1-Propionyl-2-(5-(2-pyridyloxy)pentylthio)benzimidazole] | 25 | –
340 | c1ccc(OCCCCCSc2nc3ccccc3[nH]2)nc1 [Compound 1, 2-(5-(2-pyridyloxy)pentylthio)benzimidazole] | 4.1 | –
– | 2-(5-(1-phenyltetrazolyl-5-oxy)pentylthio)benzimidazole [Compound 2] | – | AUC ([3]; oral 30 mg/kg suspension, BALB/cA male mice, blood level 0 to 6 hours by liquid chromatography): 1220 ng·h/mL; CE yield (%) [2]: 21%
680 | c1ccc2[nH]c(SCCOCCOCCNc3nc4ccccc4o3)nc2c1 [Compound 36, 2-(2-(2-(2-(2-benzoxazolylamino)ethoxy)ethoxy)ethylthio)-benzimidazole] | 12 | –
– | CC(=O)Nc1ccc2nc(SCCCCCOc3ccccn3)[nH]c2c1 [Compound 18, 5-acetylamino-2-(5-(2-pyridyloxy)pentylthio)benzimidazole] | 19 | –
860 | Cn1c(SCCCCCOc2ccccn2)nc2ccccc21 [Compound 23, 1-Methyl-2-(5-(2-pyridyloxy)pentylthio)benzimidazole] | 21 | –
100 | c1ccc2[nH]c(SCCCCCOc3nccs3)nc2c1 [Compound 5] | 11 | –
– | C=C(C)n1c(OCCCCCSc2nc3ccccc3[nH]2)nc2ccccc21 [Compound 20, 2-(5-(2-benzimidazolylthio)pentyloxy)-1-isopropenyl-benzimidazole] | 22 | –
240 | c1ccc(OCCCCSc2nc3ccccc3[nH]2)nc1 [Compound 11, 2-(4-(2-pyridyloxy)butylthio)benzimidazole] | 18 | –
680 | Clc1cc2nc(SCCCCCOc3ccccn3)[nH]c2cc1Cl [Compound 15, 5,6-dichloro-2-(5-(2-pyridyloxy)pentylthio)benzimidazole] | 18 | –
– | c1ccc2[nH]c(SCCCCCNc3nc[nH]n3)nc2c1 [Compound 29, 2-(5-(3-(1,2,4-triazyl)amino)pentylthio)benzimidazole] | – | AUC [1]: 180 ng·h/mL; CE yield (%) [2, 4]: 12%
